From patent US10947188B2, “Small molecule ferroptosis inducers” (THE TRUSTEES OF COLUMBIA UNIVERSITY IN THE CITY OF NEW YORK, priority 2016, dated 2021)
≈ marks a conversion by molar mass, not a printed value. Values belong to the compound of their own block, whether it stands above or below them.

Assays:
GPX4 = molecular target: T1, GPX4 (Homo sapiens, UniProt P36969); experiment: GPX4 enzymatic activity assay in lysates of treated cells (LC-MS); type: cell-based; conditions: BJeLR; 5 μM FIN56 for 10 h
T1 construct: Cells were sonicated to make cell lysates that were then cleared by centrifugation; endogenous in cells; host or cells: BJeLR cells (lysate of compound-treated cells)
T1 sequence (P36969 1-197): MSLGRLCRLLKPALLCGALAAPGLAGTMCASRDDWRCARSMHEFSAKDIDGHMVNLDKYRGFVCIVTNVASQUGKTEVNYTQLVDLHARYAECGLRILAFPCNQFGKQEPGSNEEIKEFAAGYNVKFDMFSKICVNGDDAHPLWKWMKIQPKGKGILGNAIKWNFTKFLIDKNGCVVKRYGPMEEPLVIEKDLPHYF
Experimental: Seeded 17 million BJeLR cells in 225-cm^2 tissue culture flasks (Corning). We then added vehicle (0.1% DMSO for 11 h) or test compound (10 μM erastin for 11 h, 0.5 μM (1S,3R)-RSL3 for 2 h, or 5 μM FIN56 for 10 h). The GPX4 enzymatic activity assay was performed as described previously (Yang et al. 2014). Briefly, 10 million cells were resuspended in cell lysis buffer. Cells were sonicated to make cell lysates that were then cleared by centrifugation at 14,000 r.p.m. for 10 min. The protein concentration of the cleared cell lysates was determined via Bradford protein assay. Mixed 200 μg of cellular protein with phosphatidyl choline hydroperoxide, a GPX4-specific substrate, and reduced glutathione, a GPX4 cofactor. The mixture was incubated at 37° C. for 30 min and then subjected to lipid extraction using chloroform:methanol (2:1) solution. The lipid extract was evaporated using a Rotavap and re-dissolved in 100% ethanol before being injected into the LC-MS instrument for 2-linoleoyl1-palmitoyl-sn-glycero-3-phosphocholine (PLPC) quantitation.

HT-1080 cells [1] = experiment: Flow cytometry of intracellular Ca(II) levels (Fluo-4); type: cell-based; conditions: 2 μM FIN56; over the course of 9 h
Text: The third compound set examined was suppressors of both ferroptosis and necrosis. These were predicted to target three proteins: alpha-1 (α1) adrenergic receptors 1B and 1D and calmodulin 3. Activation of α1 activates phospholipase C and increases Ca(II). Calmoduline 3 is a calcium-binding protein. Since all three proteins are relevant to calcium signaling, we hypothesized that calcium mediates FIN56-induced ferroptosis.

[2] = Cobalt (II) binding assay in vitro (absorbance spectrum); conditions: absorbance 300-700 nm
Experimental: For each cluster I compound (CIL13, −52, and −64), prepared two-fold dilution series with DMSO. We added 30 μL per well of either water or 10 μM cobalt (II) chloride solution to each well of a 384-well plate. Dilution series of each compound in DMSO were added by 10 μL per well. After solutions had been mixed by shaking of the plate using a Victor 3 plate reader (PerkinElmer), absorbance was scanned between 300 and 700 nm for each compound. Finally the following Absorbance value for each compound was plotted (see FIG. 9B):
[formula] where Abs is the absorbance at each wavelength. Search of Commercially Available Structural Analogs of CIL41/70.

HT-1080 cells [3] = experiment: Lethality of commercially available CIL41/70 structural analogs; type: cell-based; conditions: Homo sapiens, tested once in technical triplicates
In short: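 HT-1080 cells (1,000/well) dosed at seeding with twofold 12-point dilutions of lethal compounds. Viability read by Alamar Blue fluorescence (530/590 nm) after 6 h, normalized to media and vehicle wells. Analogs tested once, in technical triplicate.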

GPX4 activity in cell lysates (GPX4): loss of GPX4 activity
SMILES: O=S(=O)(NC1CCCCC1)c1ccc2c(c1)C(=NO)c1cc(S(=O)(=O)NC3CCCCC3)ccc1-2 [FIN56, N2,N7-dicyclohexyl-9-(hydroxyimino)-9H-fluorene-2,7-disulfonamide]
intracellular Ca(II) levels (Fluo-4) (HT-1080 cells [1]): increased intracellular Ca(II) levels

binding to cobalt (II) in vitro [2]: bound to cobalt (II) in vitro
SMILES: Cc1cccnc1Nc1nc(-c2ccccn2)cs1 [CIL13]

SMILES: N/C(=N\OC(=O)C12CC3CC(CC(C3)C1)C2)c1ccccc1 [CIL41]
EC50 (HT-1080 cells [3]): 2.8 µg/mL (≈ 9.38 µM)
